Reference: ChEMBL document CHEMBL4616599, “Molecular mechanism of C-phycocyanin induced apoptosis in LNCaP cells” (Bioorg Med Chem, 2020)
Calls of active or inactive are those of the source.

Assays:
Type in all cases: functional, cell-based
[1] = test system: LNCaP; assay: Induction of apoptosis in human LNCAP cells assessed as up regulation of p53 expression at 10 uM measured after 24 hrs by immunoblot analysis
[2] = test system: LNCaP; assay: Induction of apoptosis in human LNCAP cells assessed as increase in cleaved PARP expression at 10 uM measured after 24 hrs by Western blot analysis
[3] = test system: LNCaP; assay: Induction of apoptosis in human LNCAP cells assessed as decrease in uncleaved PARP expression at 10 uM measured after 24 hrs by Western blot analysis
[4] = test system: LNCaP; assay: Cytotoxicity against human LNCAP cells assessed as reduction in cell viability at 10 uM after 24 hrs by trypan blue dye exclusion assay
[5] = test system: LNCaP; assay: Induction of apoptosis in human LNCAP cells assessed as up regulation of p21 expression at 10 uM measured after 24 hrs by immunoblot analysis
[6] = test system: LNCaP; assay: Induction of apoptosis in human LNCAP cells assessed as increase in cleaved PARP expression at 500 ug/ml measured after 24 hrs by western blot analysis

Measured: Activity

CC[C@@]1(O)C(=O)OCc2c1cc1n(c2=O)Cc2cc3c(CN(C)C)c(O)ccc3nc2-1
active: [1] | [2] | [3] | [4] | [5] | [6]
